Target: Bromodomain-containing protein 4 (Homo sapiens, UniProt O60885)
Test: Binding affinity to human BRD4 bromodomain1 by isothermal titration calorimetry

- Kd: 950 nM
SMILES: Cc1noc(C)c1-c1ccc2c(c1)nc(CCc1ccccc1)n2CCN1CCOCC1

Reference: BindingDB's records for doi:10.1016/j.ejmech.2020.112861 (Zhengzhou University, 2021)
